Data from patent publication US20250122166A1, “SUBSTITUTED N-((2-(2,6-DIOXOPIPERIDIN-3-YL)-1-OXOISOINDOLIN-4-YL)METHYL)BENZAMIDE ANALOGS AS MODULATORS OF CEREBLON PROTEIN” (ST. JUDE CHILDREN'S RESEARCH HOSPITAL, INC., priority 2021, published 2025).

What was measured:
MOLM-13 cells = assay: Cell proliferation assay (Cell Titer-Glo, 72 h); type: cell-based; settings: Homo sapiens, 72 h incubation, * = cytostatic 50%
Method: MOLM-13 cell line was purchased from the Leibniz Institute DSMZ (ACC 554). The cells were cultured according to recommendations in RPMI 1640 cell culture media with 20% FBS (DSMZ). Exponentially growing MOLM-13 cells were plated at 1250 cells per well in Corning 8804BC white 384-well assay plates and incubated overnight at 37° C. in a humidified 5% CO2 incubator. Compounds were transferred to the assay plate from a dose-response plate using a Pintool on a Biomek FXP Laboratory Automation Workstation (Beckman Coulter). Cytotoxicity was determined following 72 hours of incubation using Promega Cell Titer Glo reagent according to the manufacturer's recommendation. Luminescence was measured on an Envision plate reader (Perkin-Elmer).
Compounds were screened in human cancer cell lines and each cell line was cultured in the complete medium recommended by the vendor and seeded in Corning 8804BC white 384-well assay plates at density of 1250 cells per well for MOLM-13 cells. After overnight incubation at 37° C. in a humidified 5% CO2 incubator, cells were treated with compounds in dose-response format using a Pintool on a Biomek FXP Laboratory Automation Workstation (Beckman Coulter). After 72h incubation, cell proliferation was assessed using Cell Titer-Glo (CTG) luminescent cell viability assay (Promega) according to the manufacturer's instruction. Luminescence signal was measured using an Envision plate reader (Perkin-Elmer).

6XHis-CRBN-DDB1 protein = 6XHis-CRBN-DDB1 protein (Homo sapiens (Human), UniProt Q96SW2); assay: CRBN fluorescence polarization assay (competitive, Cy5-O-Len probe); type: binding; settings: 6XHis-CRBN-DDB1 200 nM, Cy5-O-Len probe 30 nM, 1 hour; mean of three determinations; read-out: CRBN FP (IC50)
Method: In this competitive fluorescent polarization assay Cy5 conjugated lenalidomide analog (Cy5—O-Len)^1 was used as a fluorescent probe. 6XHis-CRBN-DDB1 protein (200 nM) and Cy5—O-Len probe (30 nM) were combined in 20 mM HEPES pH 7, 150 mM NaCl, 0.005% Tween-20 assay buffer. 20 μL of this assay cocktail was dispensed into wells of Corning 3821 black 384-well plates. Compounds were transferred to the assay plate from a dose-response plate using a Pintool on a Biomek FXP Laboratory Automation Workstation (Beckman Coulter). The plates were incubated in the dark for 1 hour at room temperature and then read on an Envision plate reader (PerkinElmer, Massachusetts, USA). IC50 values were determined using a proprietary software RISE (Robust Investigation of Screening Experiments), developed in house on the Pipeline Pilot platform (Biovia, v. 17.2.0). Data represent the mean of three independent determinations.

neosubstrate degradation = settings: relative to lenalidomide; cited from earlier work

Row | SMILES | EC50 (MOLM-13 cells) | IC50 (6XHis-CRBN-DDB1 protein) | fold more potent in cells than lenalidomide (neosubstrate degradation)
1 | O=C1CCC(N2Cc3c(CNC(=O)c4cccs4)cccc3C2=O)C(=O)N1 (stereo not shown) [Compound 27, N-((2-(2,6-dioxopiperidin-3-yl)-1-oxoisoindolin-4-yl)methyl)thiophene-2-carboxamide] | > 10000 nM | < 1000 nM | –
2 | CCCc1ccc(C(=O)NCc2cccc3c2CN(C2CCC(=O)NC2=O)C3=O)cc1 (stereo not shown) [Compound 30, N-((2-(2,6-dioxopiperidin-3-yl)-1-oxoisoindolin-4-yl)methyl)-4-propylbenzamide] | < 1000 nM | < 1000 nM | –
3 | O=C1CCC(N2Cc3c(CNC(=O)c4ccc(F)cc4Cl)cccc3C2=O)C(=O)N1 (stereo not shown) [Compound 17, 2-chloro-N-((2-(2,6-dioxopiperidin-3-yl)-1-oxoisoindolin-4-yl)methyl)-4-fluorobenzamide] | < 1000 nM | 1000 to 10000 nM | –
4 | O=C1CC[C@H](N2Cc3c(OCc4ccc(CN5CCOCC5)cc4)cccc3C2=O)C(=O)N1 [CC-220] | – | – | 10 fold
5 | O=C1CCC(N2Cc3c(CNC(=O)c4ccc(C(F)(F)F)c(F)c4)cccc3C2=O)C(=O)N1 (stereo not shown) [Compound 16, N-((2-(2,6-dioxopiperidin-3-yl)-1-oxoisoindolin-4-yl)methyl)-3-fluoro-4-(trifluoromethyl)benzamide] | < 1000 nM | 1000 to 10000 nM | –
6 | O=C1CCC(N2Cc3c(CNC(=O)c4ccc(C(F)F)cc4)cccc3C2=O)C(=O)N1 (stereo not shown) [Compound 24, 4-(difluoromethyl)-N-((2-(2,6-dioxopiperidin-3-yl)-1-oxoisoindolin-4-yl)methyl)benzamide] | < 1000 nM | 1000 to 10000 nM | –
7 | O=C1CCC(N2Cc3c(CNC(=O)c4ccccc4Cl)cccc3C2=O)C(=O)N1 (stereo not shown) [Compound 46, 2-chloro-N-((2-(2,6-dioxopiperidin-3-yl)-1-oxoisoindolin-4-yl)methyl)benzamide] | < 1000 nM | 1000 to 10000 nM | –
8 | COc1ccccc1C(=O)NCc1cccc2c1CN(C1CCC(=O)NC1=O)C2=O (stereo not shown) [Compound 29, N-((2-(2,6-dioxopiperidin-3-yl)-1-oxoisoindolin-4-yl)methyl)-2-methoxybenzamide] | < 1000 nM | 1000 to 10000 nM | –
9 | O=C1CCC(N2Cc3c(CNC(=O)c4ccc(Cl)cc4F)cccc3C2=O)C(=O)N1 (stereo not shown) [Compound 36, 4-chloro-N-((2-(2,6-dioxopiperidin-3-yl)-1-oxoisoindolin-4-yl)methyl)-2-fluorobenzamide] | < 1000 nM | < 1000 nM | –
10 | O=C1CCC(N2Cc3c(CNC(=O)c4cccc5cc[nH]c45)cccc3C2=O)C(=O)N1 (stereo not shown) [Compound 38, N-((2-(2,6-dioxopiperidin-3-yl)-1-oxoisoindolin-4-yl)methyl)-1H-indole-7-carboxamide] | < 1000 nM | < 1000 nM | –
11 | O=C1CCC(N2Cc3c(CNC(=O)c4ccc(OC(F)(F)F)cc4)cccc3C2=O)C(=O)N1 (stereo not shown) [Compound 34, N-((2-(2,6-dioxopiperidin-3-yl)-1-oxoisoindolin-4-yl)methyl)-4-(trifluoromethoxy)benzamide] | < 1000 nM | 1000 to 10000 nM | –
12 | Cc1ccc(F)cc1C(=O)NCc1cccc2c1CN(C1CCC(=O)NC1=O)C2=O (stereo not shown) [Compound 32, N-((2-(2,6-dioxopiperidin-3-yl)-1-oxoisoindolin-4-yl)methyl)-5-fluoro-2-methylbenzamide] | > 10000 nM | 1000 to 10000 nM | –
13 | O=C1CCC(N2Cc3c(CNC(=O)c4ccc5nc[nH]c5c4)cccc3C2=O)C(=O)N1 (stereo not shown) [Compound 42, N-((2-(2,6-dioxopiperidin-3-yl)-1-oxoisoindolin-4-yl)methyl)-1H-benzo[d]imidazole-6-carboxamide] | 1000 to 10000 nM | 1000 to 10000 nM | –
14 | COc1ccc(C(=O)NCc2cccc3c2CN(C2CCC(=O)NC2=O)C3=O)cc1 (stereo not shown) [Compound 25, N-((2-(2,6-dioxopiperidin-3-yl)-1-oxoisoindolin-4-yl)methyl)-4-methoxybenzamide] | > 10000 nM | > 10000 nM | –
15 | O=C1CCC(N2Cc3c(CNC(=O)c4cccc(C(F)(F)F)c4)cccc3C2=O)C(=O)N1 (stereo not shown) [Compound 12, N-((2-(2,6-dioxopiperidin-3-yl)-1-oxoisoindolin-4-yl)methyl)-3-(trifluoromethyl)benzamide] | < 1000 nM | 1000 to 10000 nM | –
16 | O=C1CCC(N2Cc3c(CNC(=O)c4cc(F)ccc4F)cccc3C2=O)C(=O)N1 (stereo not shown) [Compound 37, N-((2-(2,6-dioxopiperidin-3-yl)-1-oxoisoindolin-4-yl)methyl)-2,5-difluorobenzamide] | > 10000 nM | 1000 to 10000 nM | –
